Assay results reported in ChEMBL document CHEMBL5390317, “Novel Indane-Containing NBTIs with Potent Anti-Gram-Negative Activity and Minimal hERG Inhibition” (ACS Med Chem Lett, 2023).
Converted amounts (≈) assume the structure as drawn.

Legend:
Escherichia coli [1] = assay: Antibacterial activity against Escherichia coli ATCC 25922 assessed as inhibition in bacterial growth incubated for 20 to 24 hrs by CLSI based broth microdilution method; type: functional; details: time 20-24 hrs
Acinetobacter baumannii [2] = assay: Antibacterial activity against Acinetobacter baumannii ATCC 19606 assessed as inhibition in bacterial growth incubated for 20 to 24 hrs by CLSI based broth microdilution method; type: functional; details: time 20-24 hrs
Klebsiella pneumoniae [3] = assay: Antibacterial activity against Klebsiella pneumoniae ATCC BAA-1705 assessed as inhibition in bacterial growth incubated for 20 to 24 hrs by CLSI based broth microdilution method; type: functional; details: time 20-24 hrs
Pseudomonas aeruginosa [4] = assay: Antibacterial activity against Pseudomonas aeruginosa ATCC 27853 assessed as inhibition in bacterial growth incubated for 20 to 24 hrs by CLSI based broth microdilution method; type: functional; details: time 20-24 hrs
hERG (KCNH2) [5] = biological target: T1, hERG (KCNH2) (Homo sapiens, UniProt Q12809); assay: Inhibition of hERG potassium channel expressed in CHO cells at 10 uM by electrophysiological patch clamp assay relative to control; type: toxicity, cell-based; details: CHO cells expressing hERG
T1 sequence (Q12809 whole entry): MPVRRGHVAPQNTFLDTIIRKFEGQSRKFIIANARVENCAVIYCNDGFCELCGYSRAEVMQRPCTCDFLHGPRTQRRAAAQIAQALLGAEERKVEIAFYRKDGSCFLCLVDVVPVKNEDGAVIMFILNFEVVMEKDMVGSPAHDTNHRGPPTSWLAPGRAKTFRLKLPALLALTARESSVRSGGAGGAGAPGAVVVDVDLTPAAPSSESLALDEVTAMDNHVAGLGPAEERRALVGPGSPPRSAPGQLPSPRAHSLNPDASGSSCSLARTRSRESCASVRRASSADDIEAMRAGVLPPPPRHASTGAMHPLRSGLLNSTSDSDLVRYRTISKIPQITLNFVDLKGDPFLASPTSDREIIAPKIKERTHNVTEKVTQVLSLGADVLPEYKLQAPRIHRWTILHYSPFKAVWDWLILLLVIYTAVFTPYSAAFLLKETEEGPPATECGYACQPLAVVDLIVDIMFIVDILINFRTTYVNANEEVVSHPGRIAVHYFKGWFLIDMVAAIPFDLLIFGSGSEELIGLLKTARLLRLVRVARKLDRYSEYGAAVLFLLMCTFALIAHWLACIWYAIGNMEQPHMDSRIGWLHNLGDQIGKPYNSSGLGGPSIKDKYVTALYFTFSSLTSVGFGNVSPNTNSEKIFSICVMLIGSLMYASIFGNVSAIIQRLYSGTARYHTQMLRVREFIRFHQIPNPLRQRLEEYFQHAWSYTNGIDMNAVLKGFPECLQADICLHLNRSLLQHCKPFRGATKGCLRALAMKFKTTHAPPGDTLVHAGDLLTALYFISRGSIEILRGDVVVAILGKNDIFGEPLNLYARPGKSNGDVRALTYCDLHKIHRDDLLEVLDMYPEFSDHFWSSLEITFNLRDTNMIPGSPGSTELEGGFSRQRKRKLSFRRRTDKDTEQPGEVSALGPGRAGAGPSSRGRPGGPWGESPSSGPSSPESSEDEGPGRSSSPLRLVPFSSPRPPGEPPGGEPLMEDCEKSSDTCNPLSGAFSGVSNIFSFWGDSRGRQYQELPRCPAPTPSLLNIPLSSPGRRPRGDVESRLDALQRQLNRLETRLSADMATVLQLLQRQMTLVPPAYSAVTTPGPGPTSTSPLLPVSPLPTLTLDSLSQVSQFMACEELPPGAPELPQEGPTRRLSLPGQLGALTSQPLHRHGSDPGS

Escherichia coli [6] = assay: Antibacterial activity against Escherichia coli K-12 BW25113 assessed as inhibition in bacterial growth incubated for 20 to 24 hrs by CLSI based broth microdilution method; type: functional; details: Escherichia coli, K-12 BW25113, time 20-24 hrs; read-out: MIC
Escherichia coli [7] = assay: Antibacterial activity against Escherichia coli K-12 BW25113 deltaTolC assessed as inhibition in bacterial growth incubated for 20 to 24 hrs by CLSI based broth microdilution method; type: functional; details: time 20-24 hrs
Escherichia coli [8] = assay: Antibacterial activity against Escherichia coli ATCC 35218 assessed as inhibition in bacterial growth incubated for 20 to 24 hrs by CLSI based broth microdilution method; type: functional; details: Escherichia coli, ATCC 35218, time 20-24 hrs; read-out: MIC
Escherichia coli [9] = assay: Antibacterial activity against Escherichia coli ATCC BAA-2340 assessed as inhibition in bacterial growth incubated for 20 to 24 hrs by CLSI based broth microdilution method; type: functional; details: Escherichia coli, ATCC BAA-2340, time 20-24 hrs; read-out: MIC
Acinetobacter baumannii [10] = assay: Antibacterial activity against Acinetobacter baumannii ATCC 51432 assessed as inhibition in bacterial growth incubated for 20 to 24 hrs by CLSI based broth microdilution method; type: functional; details: Acinetobacter baumannii, ATCC 51432, time 20-24 hrs; read-out: MIC
Acinetobacter baumannii [11] = assay: Antibacterial activity against Acinetobacter baumannii ATCC BAA-747 assessed as inhibition in bacterial growth incubated for 20 to 24 hrs by CLSI based broth microdilution method; type: functional; details: Acinetobacter baumannii, ATCC BAA-747, time 20-24 hrs; read-out: MIC
Klebsiella pneumoniae [12] = assay: Antibacterial activity against Klebsiella pneumoniae ATCC 10031 assessed as inhibition in bacterial growth incubated for 20 to 24 hrs by CLSI based broth microdilution method; type: functional; details: time 20-24 hrs
Klebsiella pneumoniae [13] = assay: Antibacterial activity against Klebsiella pneumoniae ATCC 700603 assessed as inhibition in bacterial growth incubated for 20 to 24 hrs by CLSI based broth microdilution method; type: functional; details: Klebsiella pneumoniae, ATCC 700603, time 20-24 hrs; read-out: MIC
Klebsiella pneumoniae [14] = assay: Antibacterial activity against Klebsiella pneumoniae ATCC BAA-2146 assessed as inhibition in bacterial growth incubated for 20 to 24 hrs by CLSI based broth microdilution method; type: functional; details: Klebsiella pneumoniae, ATCC BAA-2146, time 20-24 hrs; read-out: MIC
Pseudomonas aeruginosa [15] = assay: Antibacterial activity against Pseudomonas aeruginosa NCTC 13437 assessed as inhibition in bacterial growth incubated for 20 to 24 hrs by CLSI based broth microdilution method; type: functional; details: Pseudomonas aeruginosa, NCTC 13437, time 20-24 hrs; read-out: MIC
Pseudomonas aeruginosa [16] = assay: Antibacterial activity against Pseudomonas aeruginosa NCTC 11451 assessed as inhibition in bacterial growth incubated for 20 to 24 hrs by CLSI based broth microdilution method; type: functional; details: Pseudomonas aeruginosa, NCTC 11451, time 20-24 hrs; read-out: MIC
Staphylococcus aureus [17] = assay: Antibacterial activity against Staphylococcus aureus ATCC BAA-1556 assessed as inhibition in bacterial growth incubated for 20 to 24 hrs by CLSI based broth microdilution method; type: functional; details: Staphylococcus aureus, ATCC BAA-1556, time 20-24 hrs; read-out: MIC
Staphylococcus aureus [18] = assay: Antibacterial activity against Staphylococcus aureus ATCC 29213 assessed as inhibition in bacterial growth incubated for 20 to 24 hrs by CLSI based broth microdilution method; type: functional; details: Staphylococcus aureus, ATCC 29213; time 20-24 hrs; read-out: MIC
[19] = Inhibition of Escherichia coli topoisomerase 4 incubated for 120 mins by Transcreener ADP2 FI assay
hERG (KCNH2) [20] = biological target: T1, hERG (KCNH2); assay: Inhibition of hERG potassium channel expressed in CHO cells at 1 uM by electrophysiological patch clamp assay relative to control; type: toxicity, cell-based; details: CHO cells expressing hERG
hERG (KCNH2) [21] = biological target: T1, hERG (KCNH2); assay: (§1) Inhibition of hERG potassium channel expressed in CHO cells by electrophysiological patch clamp assay; type: toxicity, cell-based; details: human, CHO cells expressing hERG
DNA gyrase = DNA gyrase (Escherichia coli, UniProt P0AES4+P0AES6); assay: Inhibition of Escherichia coli DNA gyrase incubated for 80 mins by Transcreener ADP2 FI assay; type: protein-complex assay
[22] = biological target: Voltage-gated inwardly rectifying potassium channel KCNH2 (Homo sapiens, UniProt Q12809); assay: as §1; type: toxicity, cell-based
Sequence of Voltage-gated inwardly rectifying potassium channel KCNH2 (Q12809 whole entry): as above

SMILES	MIC (Escherichia coli [1]) [µg/mL]	MIC (Acinetobacter baumannii [2]) [µg/mL]	MIC (Klebsiella pneumoniae [3]) [µg/mL]	MIC (Pseudomonas aeruginosa [4]) [µg/mL]	inhibition at 10 µM (hERG (KCNH2) [5]) [%]	MIC (Escherichia coli [6]) [µg/mL]	MIC (Escherichia coli [7]) [µg/mL]	MIC (Escherichia coli [8]) [µg/mL]	MIC (Escherichia coli [9]) [µg/mL]	MIC (Acinetobacter baumannii [10]) [µg/mL]	MIC (Acinetobacter baumannii [11]) [µg/mL]	MIC (Klebsiella pneumoniae [12]) [µg/mL]	MIC (Klebsiella pneumoniae [13]) [µg/mL]	MIC (Klebsiella pneumoniae [14]) [µg/mL]	MIC (Pseudomonas aeruginosa [15]) [µg/mL]	MIC (Pseudomonas aeruginosa [16]) [µg/mL]	MIC (Staphylococcus aureus [17]) [µg/mL]	MIC (Staphylococcus aureus [18]) [µg/mL]	IC50 [19] [nM]	inhibition at 1 µM (hERG (KCNH2) [20]) [%]	further results
N#Cc1cccc2c1CC(CNCCC1CN(c3ccc4c(n3)NC(=O)CO4)C(=O)O1)C2 (configuration not stated)	≤ 0.06	0.125 (≈ 0.288 µM)	1 (≈ 2.31 µM)	0.5 (≈ 1.15 µM)	99	≤ 0.06	≤ 0.06	0.125 (≈ 0.288 µM)	≤ 0.06	≤ 0.06	≤ 0.06	≤ 0.06	1 (≈ 2.31 µM)	4 (≈ 9.23 µM)	0.5 (≈ 1.15 µM)	1 (≈ 2.31 µM)	≤ 0.06	≤ 0.06	4	55	IC20 (hERG (KCNH2) [21]): 450 nM
CN(C(=O)CN1CCC1)c1cc(F)c2c(c1)CC(CNCCC1CN(c3cnc4c(n3)NC(=O)CO4)C(=O)O1)C2 (configuration not stated)	32 (≈ 57.8 µM)	> 64	> 64	64 (≈ 116 µM)		16 (≈ 28.9 µM)	1 (≈ 1.81 µM)	32 (≈ 57.8 µM)	64 (≈ 116 µM)	> 64	> 64	> 64	> 64	> 64	64 (≈ 116 µM)	> 64	> 64	64 (≈ 116 µM)	150		IC50 (DNA gyrase): 1100 nM
N#Cc1cc(OCCN)cc2c1CC(CNCCC1CN(c3ccc4c(n3)NC(=O)CO4)C(=O)O1)C2 (configuration not stated)	0.25 (≈ 0.508 µM)	16 (≈ 32.5 µM)	2 (≈ 4.06 µM)	0.125 (≈ 0.254 µM)	< 1	0.125 (≈ 0.254 µM)	≤ 0.06	0.25 (≈ 0.508 µM)	0.25 (≈ 0.508 µM)	16 (≈ 32.5 µM)	1 (≈ 2.03 µM)	≤ 0.06	2 (≈ 4.06 µM)	4 (≈ 8.12 µM)	0.5 (≈ 1.02 µM)	1 (≈ 2.03 µM)	1 (≈ 2.03 µM)	0.5 (≈ 1.02 µM)	6	< 1	IC50 (DNA gyrase): 17 nM; IC50 [22]: > 20000 nM; IC20 (hERG (KCNH2) [21]): > 10000 nM
CC(C)(N)COc1cc(C#N)c2c(c1)CC(CNCCC1CN(c3ccc4c(n3)NC(=O)CO4)C(=O)O1)C2 (configuration not stated)	0.25 (≈ 0.48 µM)	8 (≈ 15.4 µM)	2 (≈ 3.84 µM)	≤ 0.06	11	≤ 0.06	≤ 0.06	0.25 (≈ 0.48 µM)	0.125 (≈ 0.24 µM)	8 (≈ 15.4 µM)	0.25 (≈ 0.48 µM)	≤ 0.06	4 (≈ 7.68 µM)	4 (≈ 7.68 µM)	0.5 (≈ 0.96 µM)	1 (≈ 1.92 µM)	0.25 (≈ 0.48 µM)	0.125 (≈ 0.24 µM)	23	3.5	IC50 (DNA gyrase): 16 nM; IC50 [22]: > 20000 nM; IC20 (hERG (KCNH2) [21]): > 10000 nM
NC1(COc2cc(F)c3c(c2)CC(CNCCC2CN(c4ccc5c(n4)NC(=O)CO5)C(=O)O2)C3)CC1 (configuration not stated)	0.125 (≈ 0.244 µM)	0.5 (≈ 0.977 µM)	1 (≈ 1.95 µM)	0.5 (≈ 0.977 µM)	45	≤ 0.06	≤ 0.06	0.125 (≈ 0.244 µM)	0.25 (≈ 0.489 µM)	1 (≈ 1.95 µM)	≤ 0.06	≤ 0.06	2 (≈ 3.91 µM)	1 (≈ 1.95 µM)	1 (≈ 1.95 µM)	2 (≈ 3.91 µM)	0.125 (≈ 0.244 µM)	≤ 0.06	39	< 1	IC50 (DNA gyrase): 100 nM; IC50 [22]: > 10000 nM; IC20 (hERG (KCNH2) [21]): 3100 nM
N#CCOc1cc(F)c2c(c1)CC(CNCCC1CN(c3ccc4c(n3)NC(=O)CO4)C(=O)O1)C2 (configuration not stated)	0.5 (≈ 1.04 µM)	0.5 (≈ 1.04 µM)	4 (≈ 8.31 µM)	4 (≈ 8.31 µM)	98	0.25 (≈ 0.519 µM)	≤ 0.06	0.5 (≈ 1.04 µM)	1 (≈ 2.08 µM)	1 (≈ 2.08 µM)	0.125 (≈ 0.26 µM)	≤ 0.06	4 (≈ 8.31 µM)	8 (≈ 16.6 µM)	4 (≈ 8.31 µM)	8 (≈ 16.6 µM)	0.25 (≈ 0.519 µM)	0.125 (≈ 0.26 µM)	31	84	IC50 (DNA gyrase): 81 nM; IC50 [22]: 230 nM; IC20 (hERG (KCNH2) [21]): 66 nM
